This note sets out measurements from patent US6476030B1, “Pyrazolo-triazine derivatives as ligands for GABA receptors” (Merck Sharp & Dohme Ltd., priority 1998, dated 2002).

As usually defined, the melting point is the temperature of the solid-liquid transition. Molecule `Cn1ncnc1COc1nn2c(-c3ccc(F)cc3)nncc2c1-c1ccccc1F` [Example 41, 3-(2-Fluorophenyl)-7-(4-fluorophenyl)-2-(2-methyl-2H-[1,2,4]-triazol-3-ylmethoxy)pyrazolo[1,5-d][1,2,4]triazine] had a melting point of 191 °C. For the molecule `CCC(C)(C)c1c(OCc2ncnn2C)nn2c(-c3c(F)ccc(F)c3F)nncc12` [Example 43, 3-(1,1-Dimethylpropyl)-2-(2-methyl-2H-[1,2,4]triazol-3-ylmethoxy)-7-(2,3,6-trifluorophenyl)pyrazolo[1,5-d][1,2,4]triazine], the melting point was 122 to 125 °C. With `Cn1ncnc1COc1nn2c(-c3cccnc3)nncc2c1-c1ccccc1F` [Example 45, 3-(2-Fluorophenyl)-2-(2-methyl-2H-[1,2,4]triazol-3-ylmethoxy)-7-(pyridin-3-yl)pyrazolo[1,5-d][1,2,4]triazine], the melting point lay within 164 to 166 °C. Molecule `CCn1ncnc1COc1nn2c(-c3ccccc3F)nncc2c1-c1ccncc1` [Example 46, 2-(2-Ethyl-2H-[1,2,4]triazol-3-ylmethoxy)-7-(2-fluorophenyl)-3-(pyridin-4-yl)pyrazolo[1,5-d][1,2,4]triazine] yielded a melting point of 214 to 217 °C. In the case of `CCn1ncnc1COc1nn2c(-c3ccc(F)cc3)nncc2c1-c1ccccc1F` [Example 47, 2-(2-Ethyl-2H-[1,2,4]triazol-3-ylmethoxy)-3-(2-fluorophenyl)-7-(4-fluorophenyl)pyrazolo[1,5-d][1,2,4]triazine] it was 179 °C; in that of `CCCn1ncnc1COc1nn2c(-c3ccc(F)cc3)nncc2c1-c1ccccc1F` [Example 48, 3-(2-Fluorophenyl)-7-(4-fluorophenyl)-2-(2-propyl-2H-[1,2,4]triazol-3-ylmethoxy)pyrazolo[1,5-d][1,2,4]triazine], 148 °C. For the molecule `Cn1ncnc1COc1nn2c(-c3c(F)cccc3F)nncc2c1-c1ccccc1F` [Example 49, 7-(2,6-Difluorophenyl)-3-(2-fluorophenyl)-2-(2-methyl-2H-[1,2,4]triazol-3-ylmethoxy)pyrazolo[1,5-d][1,2,4]triazine], the melting point stood at 163 °C. In the case of `Cn1ncnc1COc1nn2c(-c3cccc(F)c3)nncc2c1-c1ccccc1F` [Example 51, 3-(2-Fluorophenyl)-7-(3-fluorophenyl)-2-(2-methyl-2H-[1,2,4]triazol-3-ylmethoxy)pyrazolo[1,5-d][1,2,4]triazine] it was 169 to 170 °C; in that of `Cn1ncnc1COc1nn2c(-c3ccc(F)cc3F)nncc2c1-c1ccccc1F` [Example 52, 7-(2,4-Difluorophenyl)-3-(2-fluorophenyl)-2-(2-methyl-2H-[1,2,4]triazol-3-ylmethoxy)pyrazolo[1,5-d][1,2,4]triazine], 164 to 166 °C. For `Cn1ncnc1COc1nn2c(-c3ccccc3F)nncc2c1-c1ccccn1` [Example 53, 7-(2-Fluorophenyl)-2-(2-methyl-2H-[1,2,4]triazol-3-ylmethoxy)-3-(pyridin-2-yl)pyrazolo[1,5-d][1,2,4]triazine], the melting point lay within 186 to 187 °C. The molecule `Cn1ncnc1COc1nn2c(-c3ccccc3F)nncc2c1-c1cccs1` [Example 54, 7-(2-Fluorophenyl)-2-(2-methyl-2H-[1,2,4]triazol-3-ylmethoxy)-3-(thien-2-yl)pyrazolo[1,5-d][1,2,4]triazine] showed a melting point of 196 to 197 °C.

The molecule `Cn1ncnc1COc1nn2c(-c3ccccc3F)nncc2c1-c1ccco1` [Example 55, 7-(2-Fluorophenyl)-3-(furan-2-yl)-2-(2-methyl-2H-[1,2,4]triazol-3-ylmethoxy)pyrazolo[1,5-d][1,2,4]triazine] gave a melting point of 188 to 190 °C. The value for `Cn1ncnc1COc1nn2c(-c3ccc(F)cc3F)nncc2c1C(C)(C)C` [Example 56, 7-(2,4-Difluorophenyl)-3-(1,1-dimethylethyl)-2-(2-methyl-2H-[1,2,4]triazol-3-ylmethoxy)pyrazolo[1,5-d][1,2,4]triazine] was 118 °C; that for `CCn1ncnc1COc1nn2c(-c3ccc(F)cc3F)nncc2c1C(C)(C)C` [Example 57, 7-(2,4-Difluorophenyl)-3-(1,1-dimethylethyl)-2-(2-ethyl-2H-[1,2,4]triazol-3-ylmethoxy)pyrazolo[1,5-d][1,2,4]triazine] was 145 °C. The value for `CCn1ncnc1COc1nn2c(-c3ccccc3F)nncc2c1-c1ccccc1F` [Example 58, 2-(2-Ethyl-2H-[1,2,4]triazol-3-ylmethoxy)-3,7-bis(2-fluorophenyl)-pyrazolo[1,5-d][1,2,4]triazine] was 164 °C.

As to `Cn1cnc(COc2nn3c(-c4ccccc4F)nncc3c2-c2ccccc2F)n1` [Example 59, 3,7-bis(2-Fluorophenyl)-2-(1-methyl-1H-[1,2,4]triazol-3-ylmethoxy)pyrazolo[1,5-d][1,2,4]triazine], the melting point stood at 184 °C. The value for `Cn1nncc1COc1nn2c(-c3ccccc3F)nncc2c1-c1ccccc1F` [Example 60, 3,7-bis(2-Fluorophenyl)-2-(3-methyl-3H-[1,2,3]triazol-4-ylmethoxy)pyrazolo[1,5-d][1,2,4]triazine] was 188 °C. The molecule `Cn1cc(COc2nn3c(-c4ccccc4F)nncc3c2-c2ccccc2F)nn1` [Example 61, 3,7-bis(2-Fluorophenyl)-2-(1-methyl-1H-[1,2,3]triazol-4-ylmethoxy)pyrazolo[1,5-d][1,2,4]triazine] registered a melting point of 175 °C. In turn, `Cc1cccc(COc2nn3c(-c4ccccc4F)nncc3c2-c2ccccc2F)n1` [Example 62, 3,7-bis(2-Fluorophenyl)-2-(6-methylpyridin-2-ylmethoxy)pyrazolo[1,5-d][1,2,4]triazine] showed a melting point of 197 °C. As to `Fc1ccccc1-c1c(OCc2cccnc2)nn2c(-c3ccccc3F)nncc12` [Example 63, 3,7-bis(2-Fluorophenyl)-2-(pyridin-3-ylmethoxy)pyrazolo[1,5-d][1,2,4]triazine], the melting point is 146 °C. In turn, `Fc1ccccc1-c1c(OCc2ccncc2)nn2c(-c3ccccc3F)nncc12` [Example 64, 3,7-bis(2-Fluorophenyl)-2-(pyridin-4-ylmethoxy)pyrazolo[1,5-d][1,2,4]triazine] had a melting point of 143 °C. The value for `Fc1ccccc1-c1c(OCc2ncccc2OC2CCC2)nn2c(-c3ccccc3F)nncc12` [Example 65, 2-(3-Cyclobutyloxypyridin-2-ylmethoxy)-3,7-bis(2-fluorophenyl)-pyrazolo[1,5-d][1,2,4]triazine] was 66 °C; that for `COc1cccnc1COc1nn2c(-c3ccccc3F)nncc2c1-c1ccccc1F` [Example 67, 3,7-bis(2-Fluorophenyl)-2-(3-methoxypyridin-2-ylmethoxy)pyrazolo[1,5-d][1,2,4]triazine] was 143 °C. `CCOc1cccnc1COc1nn2c(-c3ccccc3F)nncc2c1-c1ccccc1F` [Example 68, 2-(3-Ethoxypyridin-2-ylmethoxy)-3,7-bis(2-fluorophenyl)pyrazolo[1,5-d][1,2,4]triazine]: the melting point amounted to 77 °C. With `Cc1cccnc1COc1nn2c(-c3ccccc3F)nncc2c1-c1ccccc1F` [Example 69, 3,7-bis(2-Fluorophenyl)-2-(3-methylpyridin-2-ylmethoxy)pyrazolo[1,5-d][1,2,4]triazine], the melting point was 69 °C. As for `Cc1csc(COc2nn3c(-c4ccccc4F)nncc3c2-c2ccccc2F)n1` [Example 71, 3,7-bis(2-Fluorophenyl)-2-(4-methylthiazol-2-ylmethoxy)pyrazolo[1,5-d][1,2,4]triazine], the melting point came to 176 °C. With `Cc1cnc(COc2nn3c(-c4ccccc4F)nncc3c2-c2ccccc2F)s1` [Example 72, 3,7-bis(2-Fluorophenyl)-2-(5-methylthiazol-2-ylmethoxy)pyrazolo[1,5-d][1,2,4]triazine], the melting point came out at 154 °C. With `Fc1ccccc1-c1c(OCc2cscn2)nn2c(-c3ccccc3F)nncc12` [Example 73, 3,7-bis(2-Fluorophenyl)-2-(thiazol-4-ylmethoxy)pyrazolo[1,5-d][1,2,4]triazine], the melting point amounted to 212 °C. For `CC(C)n1ncnc1COc1nn2c(-c3ccccc3F)nncc2c1-c1ccccc1F` [Example 74, 3,7-bis(2-Fluorophenyl)-2-(2-isopropyl-2H-[1,2,4]triazol-3-ylmethoxy)-pyrazolo[1,5-d][1,2,4]triazine], the melting point was determined as 179 °C. `Fc1ccccc1-c1c(OCc2cccnn2)nn2c(-c3ccccc3F)nncc12` [Example 76, 3,7-bis(2-Fluorophenyl)-2-(pyridazin-3-ylmethoxy)pyrazolo[1,5-d][1,2,4]triazine] gave a melting point of 210 °C. Molecule `Fc1ccccc1-c1c(OCc2ccncn2)nn2c(-c3ccccc3F)nncc12` [Example 78, 3,7-bis(2-Fluorophenyl)-2-(pyrimidin-4-ylmethoxy)pyrazolo[1,5-d][1,2,4]triazine] displayed a melting point of 189 °C. Molecule `Fc1ccccc1-c1c(OCc2cnc3ccccc3n2)nn2c(-c3ccccc3F)nncc12` [Example 79, 3,7-bis(2-Fluorophenyl)-2-(quinoxalin-2-ylmethoxy)pyrazolo[1,5-d][1,2,4]triazine] came in with a melting point of 209 °C. The value for `Cn1ncnc1COc1nn2c(-c3ccoc3)nncc2c1-c1ccccc1F` [Example 80, 3-(2-Fluorophenyl)-7-(furan-3-yl)-2-(2-methyl-2H-[1,2,4]triazol-3-ylmethoxy)pyrazolo[1,5-d][1,2,4]triazine] was 148 °C.

Molecule `Cn1c(COc2nn3c(-c4ccccc4F)nncc3c2-c2ccccc2F)nc2ccccc21` [Example 81, 3,7-bis(2-Fluorophenyl)-2-(1-methyl-1H-benzimidazol-2-ylmethoxy)pyrazolo[1,5-d][1,2,4]triazine] gave a melting point of 218 to 220 °C. As for `Fc1ccccc1-c1c(OCc2nc3ccccn3n2)nn2c(-c3ccccc3F)nncc12` [Example 82, 3,7-bis(2-Fluorophenyl)-2-([1,2,4]triazolo[1,5-a]pyridin-2-ylmethoxy)pyrazolo[1,5-d][1,2,4]triazine], the melting point was in the range of 208 to 209 °C.
